Measured values as given in ChEMBL document CHEMBL1909046, “DrugMatrix in vitro pharmacology data”.

Experiments:
[1] = DRUGMATRIX: Atrial Natriuretic Factor (ANF) radioligand binding (ligand: [125I] ANF (rat)); type: cell membranes, Cavia porcellus, Dunkin-Hartley, Adrenal gland, Membrane; settings: Not Active = under 50% inhibition at 10 µM
[2] = DRUGMATRIX: Sigma2 radioligand binding (ligand: [3H] Ifenprodil); type: cell membranes, Rattus norvegicus, Wistar, Brain, Membrane; settings: Not Active = under 50% inhibition at 10 µM
[3] = DRUGMATRIX: Glutamate, NMDA, Agonism radioligand binding (ligand: [3H] CGP-39653); type: cell membranes, Rattus norvegicus, Wistar, Cerebral cortex, Membrane; settings: Not Active = under 50% inhibition at 10 µM
Acetylcholinesterase = Acetylcholinesterase (Homo sapiens, UniProt P22303); assay: DRUGMATRIX: Acetylcholinesterase enzyme inhibition (substrate: acetylthiocholine); type: cell-based, HEK293; settings: hek293; Not Active = under 50% inhibition at 10 µM
Adenosine receptor A1 = target: T1, Adenosine receptor A1 (Homo sapiens, UniProt P30542); type: cell membranes, CHO, Membrane;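 also: radioligand binding assay at the adenosine A1 receptor, with DPCPX serving as the labelled ligand; in other assays of this panel Not Active means under 50% inhibition at 10 µM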
T1 sequence (P30542 whole entry): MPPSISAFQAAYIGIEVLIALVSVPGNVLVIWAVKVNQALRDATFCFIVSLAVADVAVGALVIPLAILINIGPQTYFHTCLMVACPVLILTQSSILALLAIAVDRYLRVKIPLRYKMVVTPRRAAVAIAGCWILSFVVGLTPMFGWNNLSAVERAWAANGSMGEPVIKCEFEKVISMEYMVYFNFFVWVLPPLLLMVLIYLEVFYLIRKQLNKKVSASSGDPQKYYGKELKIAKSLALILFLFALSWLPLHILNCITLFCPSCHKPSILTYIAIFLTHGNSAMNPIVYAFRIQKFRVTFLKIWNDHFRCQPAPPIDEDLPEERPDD

Adenosine receptor A2a = Adenosine receptor A2a (Homo sapiens, UniProt P29274); assay: DRUGMATRIX: Adenosine A2A radioligand binding (ligand: […]); type: cell membranes, HEK293, Membrane; settings: hek293; Not Active = under 50% inhibition at 10 µM
Sequence of Adenosine receptor A2a (P29274 whole entry): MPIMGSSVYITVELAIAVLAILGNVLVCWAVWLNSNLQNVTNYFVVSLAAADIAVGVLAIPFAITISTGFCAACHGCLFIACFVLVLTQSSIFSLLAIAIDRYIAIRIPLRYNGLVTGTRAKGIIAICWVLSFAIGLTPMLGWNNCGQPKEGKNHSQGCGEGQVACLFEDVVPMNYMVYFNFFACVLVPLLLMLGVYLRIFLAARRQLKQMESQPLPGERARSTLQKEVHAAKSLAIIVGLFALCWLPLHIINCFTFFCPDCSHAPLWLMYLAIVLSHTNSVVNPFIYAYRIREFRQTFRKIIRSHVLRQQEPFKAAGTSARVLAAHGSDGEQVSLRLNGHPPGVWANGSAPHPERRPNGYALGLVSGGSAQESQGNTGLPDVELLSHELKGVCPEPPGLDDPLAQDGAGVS

Sequence of Acetylcholinesterase (P22303 whole entry): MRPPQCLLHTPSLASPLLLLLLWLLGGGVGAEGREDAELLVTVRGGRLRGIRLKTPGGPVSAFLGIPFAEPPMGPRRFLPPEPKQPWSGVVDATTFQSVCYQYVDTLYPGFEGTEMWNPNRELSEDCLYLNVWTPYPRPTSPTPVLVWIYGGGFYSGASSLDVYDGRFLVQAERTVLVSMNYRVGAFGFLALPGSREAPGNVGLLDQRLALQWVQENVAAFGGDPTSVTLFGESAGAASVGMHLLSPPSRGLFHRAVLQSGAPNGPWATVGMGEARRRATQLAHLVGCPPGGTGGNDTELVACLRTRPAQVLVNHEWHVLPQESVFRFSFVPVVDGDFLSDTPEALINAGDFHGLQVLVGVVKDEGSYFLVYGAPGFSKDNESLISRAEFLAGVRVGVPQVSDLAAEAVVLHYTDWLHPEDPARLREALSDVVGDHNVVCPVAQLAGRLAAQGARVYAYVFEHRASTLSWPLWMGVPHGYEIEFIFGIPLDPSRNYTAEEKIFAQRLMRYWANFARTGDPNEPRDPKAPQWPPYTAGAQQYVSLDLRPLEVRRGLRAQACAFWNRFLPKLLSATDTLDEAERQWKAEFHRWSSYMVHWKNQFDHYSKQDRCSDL

Molecule | IC50 [1] | Ki [1] | IC50 [2] | Ki [2] | IC50 [3] | Ki [3] | IC50 (Acetylcholinesterase) | IC50 (Adenosine receptor A1; cho) | IC50 (Adenosine receptor A2a) | Ki (Acetylcholinesterase) | Ki (Adenosine receptor A1; cho) | Ki (Adenosine receptor A2a) | IC50 (Adenosine receptor A1; read-out: IC50) | Ki (Adenosine receptor A1; read-out: Ki)
COc1cc(CNC(=O)CCCC/C=C/C(C)C)ccc1O [CAPSAICIN] | Not Active | Not Active | Not Active | Not Active | Not Active | Not Active | Not Active | Not Active | Not Active |  |  |  |  | 
CN(C(=O)CCCOc1ccc2[nH]c(=O)ccc2c1)C1CCCCC1 [CILOSTAMIDE] | Not Active | Not Active | Not Active | Not Active | Not Active | Not Active | Not Active | Not Active | Not Active |  |  |  |  | 
CC(=O)OCC(CCn1cnc2cnc(N)nc21)COC(C)=O [FAMCICLOVIR] | Not Active | Not Active | Not Active | Not Active | Not Active | Not Active | Not Active | Not Active | Not Active |  |  |  |  | 
OCCN1CCN(CCCN2c3ccccc3Sc3ccc(Cl)cc32)CC1 [PERPHENAZINE] | Not Active | Not Active | Not Active | Not Active | Not Active | Not Active | Not Active | Not Active | Not Active |  |  |  |  | 
COC(=O)c1ccccc1O [METHYL SALICYLATE] | Not Active | Not Active | Not Active | Not Active | Not Active | Not Active | Not Active | Not Active | Not Active |  |  |  |  | 
C[C@H]([C@](O)(Cn1cncn1)c1ccc(F)cc1F)S(C)(=O)=O [GENACONAZOLE] | Not Active | Not Active | Not Active | Not Active | Not Active | Not Active | Not Active | Not Active | Not Active |  |  |  |  | 
Clc1cc2c(cc1Cl)Oc1cc(Cl)c(Cl)cc1O2 [2,3,7,8-TETRACHLORODIBENZO-P-DIOXIN] | Not Active | Not Active | Not Active | Not Active | Not Active | Not Active | Not Active | Not Active | Not Active |  |  |  |  | 
Nn1nnc2ccccc21 | Not Active | Not Active | Not Active | Not Active | Not Active | Not Active | Not Active | Not Active | Not Active |  |  |  |  | 
COc1ccccc1OCC(O)COC(N)=O (stereo not given) [METHOCARBAMOL] | Not Active | Not Active | Not Active | Not Active | Not Active | Not Active | Not Active | Not Active | Not Active |  |  |  |  | 
CC(C(=O)O)c1ccc(-c2ccccc2)c(F)c1 (stereo not given) [FLURBIPROFEN] | Not Active | Not Active | Not Active | Not Active | Not Active | Not Active | Not Active | Not Active | Not Active |  |  |  |  | 
Cc1c(F)c(N2CCNC(C)C2)cc2c1c(=O)c(C(=O)O)cn2C1CC1 (stereo not given) [GREPAFLOXACIN] | Not Active | Not Active | Not Active | Not Active | Not Active | Not Active | Not Active | Not Active | Not Active |  |  |  |  | 
Oc1ccccc1O [CATECHOL] | Not Active | Not Active | Not Active | Not Active | Not Active | Not Active | Not Active | Not Active | Not Active |  |  |  |  | 
O=P1(N(CCCl)CCCl)NCCCO1 (stereo not given) [CYCLOPHOSPHAMIDE ANHYDROUS] | Not Active | Not Active | Not Active | Not Active | Not Active | Not Active | Not Active | Not Active | Not Active |  |  |  |  | 
INSULIN HUMAN | Not Active | Not Active | Not Active | Not Active | Not Active | Not Active | Not Active | Not Active | Not Active | Not Active | Not Active | Not Active |  | 
CS(=O)(=O)OCCCCOS(C)(=O)=O [BUSULFAN] | Not Active | Not Active | Not Active | Not Active | Not Active | Not Active | Not Active | Not Active | Not Active |  |  |  |  | 
CC(C)(CO)C(O)C(=O)NCCCO (stereo not given) [PANTHENOL] | Not Active | Not Active | Not Active | Not Active | Not Active | Not Active | Not Active | Not Active | Not Active |  |  |  |  | 
O=C(O)c1cc(=O)c2c(OCC(O)COc3cccc4oc(C(=O)O)cc(=O)c34)cccc2o1 [CROMOLYN] | Not Active | Not Active | Not Active | Not Active | Not Active | Not Active | Not Active | Not Active | Not Active |  |  |  |  | 
O=C(/C=C/c1ccc(O)c(O)c1)OCCc1ccccc1 [CAFFEIC ACID PHENETHYL ESTER] | Not Active | Not Active | Not Active | Not Active | Not Active | Not Active | Not Active | Not Active | Not Active |  |  |  |  | 
Nc1nc(Cl)nc2c1ncn2[C@H]1C[C@H](O)[C@@H](CO)O1 [CLADRIBINE] | Not Active | Not Active | Not Active | Not Active | Not Active | Not Active | Not Active | Not Active | Not Active |  |  |  |  | 
CN1C[C@H](C(=O)N[C@]2(C)O[C@@]3(O)[C@@H]4CCCN4C(=O)[C@H](Cc4ccccc4)N3C2=O)C[C@@H]2c3cccc4[nH]cc(c34)C[C@H]21 [DIHYDROERGOTAMINE] | Not Active | Not Active | Not Active | Not Active | Not Active | Not Active | Not Active | Not Active | Not Active |  |  |  |  | 
CC[C@H](C)C(=O)O[C@H]1C[C@@H](C)C=C2C=C[C@H](C)[C@H](CC[C@@H]3C[C@@H](O)CC(=O)O3)[C@H]21 [LOVASTATIN] | Not Active | Not Active | Not Active | Not Active | Not Active | Not Active | Not Active |  | Not Active |  |  |  | 26.7 µM | 15.6 µM
CC[C@H](C)C(=O)O[C@H]1C[C@H](O)C=C2C=C[C@H](C)[C@H](CC[C@@H](O)C[C@@H](O)CC(=O)O)[C@H]21 [PRAVASTATIN] | Not Active | Not Active | Not Active | Not Active | Not Active | Not Active | Not Active | Not Active | Not Active |  |  |  |  | 
CCOC(=O)n1ccn(C)c1=S [CARBIMAZOLE] | Not Active | Not Active | Not Active | Not Active | Not Active | Not Active | Not Active | Not Active | Not Active |  |  |  |  | 
C#C[C@]1(O)CC[C@H]2[C@@H]3CCC4=Cc5oncc5C[C@]4(C)[C@H]3CC[C@@]21C [DANAZOL] | Not Active | Not Active | Not Active | Not Active | Not Active | Not Active | Not Active | Not Active | Not Active |  |  |  |  | 
